PubChem BioAssay AID1648 (Sanford-Burnham Center for Chemical Genomics, 2009)
Activity calls are given as the source filed them. How the calls were made is not given here.

Biological target: Serine/threonine-protein kinase mTOR (Homo sapiens) (UniProt P42345)
Assay: binders of mTOR FRB domain, biophysical, NMR (AID 1648)
Conditions: NMR binding to FRB domain, chemical shift

Chain of Serine/threonine-protein kinase mTOR (Homo sapiens) (P42345 2015-2114): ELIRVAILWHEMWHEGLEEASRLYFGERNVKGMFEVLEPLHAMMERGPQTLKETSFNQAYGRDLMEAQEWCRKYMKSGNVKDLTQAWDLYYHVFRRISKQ

Row | SMILES | Kd
1 | Nc1ccccc1C(=O)N1CCOCC1 | > 4 mM (inactive)
2 | COc1ccc(/C=C2/C(=O)N=C(N)N2C)cc1OC | > 4 mM (inactive)
3 | O=[N+]([O-])c1cccc(CN2CCC(O)CC2)c1 | > 4 mM (inactive)
4 | O=C(O)Cn1cnc2ccccc2c1=O | > 4 mM (inactive)
5 | Cn1nnc2cc(C(=O)N3CCSCC3)ccc21 | > 4 mM (inactive)
6 | O=C(O)c1cc(O)c(O)c(O)c1 | > 4 mM (inactive)
7 | O=C1CSC(=O)N1c1cccc(O)c1 | > 4 mM (inactive)
8 | COc1cc2c(cc1OC)[C@@H]1C(=O)c3ccc(OC)c(CC=C(C)C)c3O[C@@H]1CO2 | > 4 mM (inactive)
9 | C[C@@H](N)[C@@H](O)c1ccccc1 | > 4 mM (inactive)
10 | Cc1nnc2sc(-c3ccco3)nn12 | > 4 mM (inactive)
11 | c1ccc(-n2cnnc2)nc1 | > 4 mM (inactive)
12 | COc1ccc(S(=O)(=O)N2CCOCC2)cc1C(C)C | > 4 mM (inactive)
13 | O=C(O)CCN1CCOCC1 | > 4 mM (inactive)
14 | Cc1cc(C)nc(N2CC(=O)N(C)C2=N)n1 | > 4 mM (inactive)
15 | O=C(O)/C=C/c1ccc(O)c(O)c1 | > 4 mM (inactive)
16 | CC1(C)C2CC(=O)[C@]3(C)C(CC[C@@]4(C)[C@H](c5ccoc5)OC(=O)C5OC543)[C@@]2(C)[C@@H](O)C[C@H]1O (stereo partly drawn) | > 4 mM (inactive)
17 | CSc1cc(C)[nH]c(=O)n1 | > 4 mM (inactive)
18 | CCOC(=O)CC1Sc2ccccc2NC1=S (stereo not drawn) | > 4 mM (inactive)
19 | CN(c1ccccc1C(=O)N1CCCC1)S(C)(=O)=O | > 4 mM (inactive)
20 | CC(=O)Cc1nsc(NC(=O)c2ccc(C)cc2)n1 | > 4 mM (inactive)
21 | NC(=O)c1cc(N)ccc1N1CCCCC1 | > 4 mM (inactive)
22 | Cc1nccn1CCC(=O)O | > 4 mM (inactive)
23 | NS(=O)(=O)c1ccc(NC(=O)C2CC2)cc1 | > 4 mM (inactive)
24 | Oc1ccc(C(=S)N2CCOCC2)cc1 | > 4 mM (inactive)

Row | SMILES | Kd
25 | O=C(Nc1ccccc1)N1CCOCC1 | > 4 mM (inactive)
26 | Cc1cc(NC(=O)c2c(F)c(F)c(F)c(F)c2F)no1 | > 4 mM (inactive)
27 | C=CCc1ccc(O)c(OC)c1 | > 4 mM (inactive)
28 | CCN1CCn2c1nc(N1CCOCC1)nc2=O | > 4 mM (inactive)
29 | COc1ccccc1NC(C)=O | > 4 mM (inactive)
30 | COc1cccc(-c2cc(=O)c3cc(OC)ccc3o2)c1 | > 4 mM (inactive)
31 | Cn1c(=O)c2ccccc2n(Cc2ccccc2F)c1=O | > 4 mM (inactive)
32 | CC(=O)OC1CCC2(O)CC1(C)CCC1C2CC1(C)C (stereo not drawn) | > 4 mM (inactive)
33 | O=[N+]([O-])c1c[n+]([O-])n(-c2ccccc2)n1 | > 4 mM (inactive)
34 | COc1ccc2cc1Oc1ccc(cc1)C[C@H]1c3cc(c(OC)cc3CCN1C)Oc1c(OC)c(OC)cc3c1[C@H](C2)N(C)CC3 | > 4 mM (inactive)
35 | C=C1C(=O)OC2CC1C(OC(C)=O)C/C(C)=C/CC/C(C)=C/CC[C@]2(C)O (stereo partly drawn) | > 4 mM (inactive)
36 | O=C(O)c1cccc2nsnc12 | > 4 mM (inactive)
37 | COc1cccc(-c2nc(-c3ccccn3)no2)c1OC | > 4 mM (inactive)
38 | Cc1cc(=O)n2[nH]c(COc3ccccc3)nc2n1 | > 4 mM (inactive)
39 | O=C1c2ccncc2C(=O)N1CO | > 4 mM (inactive)
40 | CCNC(=S)NS(=O)(=O)c1ccccc1 | > 4 mM (inactive)
41 | Cc1cc2ncn(S(=O)(=O)N3CCOCC3)c2cc1C | > 4 mM (inactive)
42 | NCCCCN=C(N)N | > 4 mM (inactive)
43 | CC(=O)Nc1ccc(C(=O)N2CCOCC2)cc1Cl | > 4 mM (inactive)
44 | c1ccc(SCc2nc(-c3ccncc3)no2)cc1 | > 4 mM (inactive)
45 | Nc1c(Nc2ccccc2)c2ccccc2oc1=O | > 4 mM (inactive)
46 | COc1ccc(C2(C)NC(=O)NC2=O)cc1 (stereo not drawn) | > 4 mM (inactive)
47 | Nc1ccc(S(=O)(=O)Nc2ccc(F)cc2F)cc1 | > 4 mM (inactive)
48 | S=C(NCc1cccnc1)NC1CC1 | > 4 mM (inactive)

Row | SMILES | Kd
49 | COC(=O)C[C@H]1C(C)(C)C(=O)[C@@H]2CC3=C4CC(=O)O[C@@H](c5ccoc5)[C@]4(C)CCC3C1(C)C2=O (stereo partly drawn) | > 4 mM (inactive)
50 | CO[C@H]1[C@@H](O)[C@@H](C)O[C@H](O[C@H]2CCC3(C)C4CCC5(C)[C@@H](C6=CC(=O)OC6)CC[C@]5(O)[C@@H]4CC[C@]3(O)C2)[C@@H]1O (stereo partly drawn) | > 4 mM (inactive)
51 | Nc1cc(F)ccc1-n1ccnc1 | > 4 mM (inactive)
52 | O=C1CSC(c2ccccc2)N1 (stereo not drawn) | > 4 mM (inactive)
53 | Cc1occc1C(=O)Nc1nnc(C2CCCCC2)s1 | > 4 mM (inactive)
54 | Cn1c(SCc2ccon2)nc2ccccc2c1=O | > 4 mM (inactive)
55 | Nc1ccc(CCC(=O)O)cc1 | > 4 mM (inactive)
56 | Cc1sc(N)c(C(N)=O)c1C | > 4 mM (inactive)
57 | NC(=O)CN1CC(c2ccccc2)CC1=O (stereo not drawn) | > 4 mM (inactive)
58 | O=C(Nn1cnnc1)c1ccccc1-c1ccccc1 | > 4 mM (inactive)
59 | O=C1N=C(N2CCOCC2)S/C1=C\c1cccnc1 | > 4 mM (inactive)
60 | O=C(O)CCCN1CNC(=S)NC1 | > 4 mM (inactive)
61 | O=C(NCc1cccc(Cl)c1)c1ccco1 | > 4 mM (inactive)
62 | CC(C)NC(=O)c1cc(=O)n(C)c(=O)n1C | > 4 mM (inactive)
63 | Cn1nc(-c2ccccc2)cc1N | > 4 mM (inactive)
64 | CCOC(=O)C1CCN(Cc2ccccc2)CC1 | > 4 mM (inactive)
65 | Nc1cccc(S(=O)(=O)N2CCCC2)c1 | > 4 mM (inactive)
66 | Cc1cc2cc(N)ccc2[nH]1 | > 4 mM (inactive)
67 | O=[N+]([O-])c1ccc(/C=N/c2ncn[nH]2)cc1 | > 4 mM (inactive)
68 | O=c1[nH]cnc2nc[nH]c12 | > 4 mM (inactive)
69 | COCC(=O)Nc1nc2ccc(C)cc2s1 | > 4 mM (inactive)
70 | O=c1c(O)c(-c2ccccc2)oc2ccccc12 | > 4 mM (inactive)
71 | CCCCN1C(=O)N(C)C2NC(=O)NC21 (stereo not drawn) | > 4 mM (inactive)
72 | CCn1nnc(NC(=O)c2cc3ccccc3o2)n1 | > 4 mM (inactive)

Row | SMILES | Kd
73 | Fc1ccc(NC2=NCCS2)cc1Cl | > 4 mM (inactive)
74 | O=C(O)CCC(=O)Nc1ccccc1F | > 4 mM (inactive)
75 | NCC1CN(Cc2ccccc2)CCO1 (stereo not drawn) | > 4 mM (inactive)
76 | CCOc1ccc(-c2c(=O)n(O)c3ccccc3[n+]2[O-])cc1 | > 4 mM (inactive)
77 | CN(C)S(=O)(=O)c1ccccc1C#N | > 4 mM (inactive)
78 | CN(C)c1nc(N2CCOCC2)nc(N2CCOCC2)n1 | > 4 mM (inactive)
79 | CN1CC(=O)Nc2ccc([N+](=O)[O-])cc2C1=O | > 4 mM (inactive)
80 | CC(C)c1c(O)ccc2c1CCC1[C@@](C)(CO)CCC[C@]21C (stereo partly drawn) | > 4 mM (inactive)
81 | Cn1ncc(SCc2ccco2)c(Cl)c1=O | > 4 mM (inactive)
82 | CCOC(=O)c1c(C)cc(O)c(C)c1O | > 4 mM (inactive)
83 | Cc1nnc(NC(=O)C(C)Sc2nncn2C)s1 (stereo not drawn) | > 4 mM (inactive)
84 | CCc1nnsc1C(=O)Nc1nccs1 | > 4 mM (inactive)
85 | CC1(C)C2CC[C@]3(C)C(C(=O)C=C4[C@H]5C[C@@](C)(C(=O)O)CC[C@]5(C)CC[C@]43C)[C@@]2(C)CC[C@@H]1O (stereo partly drawn) | > 4 mM (inactive)
86 | O=c1cc(O)n(-c2ccc(F)cc2)c(=S)[nH]1 | > 4 mM (inactive)
87 | Cn1c(=O)cc(N2CCCCC2)[nH]c1=O | > 4 mM (inactive)
88 | NS(=O)(=O)c1ccc(NC(=O)c2ccccc2F)cc1 | > 4 mM (inactive)
89 | CC(=O)Nc1nc(C)nc(-c2ccccc2)c1C(C)=O | > 4 mM (inactive)
90 | Cc1ncc(C[n+]2csc3ccccc32)c(N)n1 | > 4 mM (inactive)
91 | O=[n+]1c2c(n([O-])c3ccccc31)CCCC2 | > 4 mM (inactive)
92 | COc1ccc(-c2nc(N)n(C(C)=O)n2)cc1 | > 4 mM (inactive)
93 | Cc1cc(S(=O)(=O)N2CCOCC2)ccc1F | > 4 mM (inactive)
94 | O=C(Oc1ccc2c(c1)OCC2=O)c1ccccc1 | > 4 mM (inactive)
95 | Cc1cc(=O)n2nc(-c3ccccc3)sc2n1 | > 4 mM (inactive)
96 | COc1ccc2[nH]c(O)c(NC(C)=O)c2c1 | > 4 mM (inactive)

Row | SMILES | Kd
97 | CC(=O)O[C@@H]1CC2C(C)(C)[C@H](O)C[C@H](O)[C@]2(C)C2CC[C@@]3(C)C(=CC(=O)O[C@H]3c3ccoc3)[C@@]21C (stereo partly drawn) | > 4 mM (inactive)
98 | CC1(C)CC[C@]2(C(=O)O)CC[C@]3(C)C(=CCC4[C@@]5(C)CC[C@@H](O)C(C)(C)C5CC[C@]43C)C2C1 (stereo partly drawn) | > 4 mM (inactive)
99 | O=C1NC(=S)NC(=O)C1=Cc1cccs1 | > 4 mM (inactive)
100 | CN1CCN(C(=O)/C=C\C(=O)O)CC1 | > 4 mM (inactive)
101 | Fc1cccc(F)c1CN1CCN(c2ncccn2)CC1 | > 4 mM (inactive)
102 | Cc1onc(-c2ccccc2)c1C(=O)Nc1ccncc1 | > 4 mM (inactive)
103 | O=S1(=O)CCC(NC(=S)Nc2ccc(O)cc2)C1 (stereo not drawn) | > 4 mM (inactive)
104 | Cc1cc(C(=O)N2CCCCCC2)cs1 | > 4 mM (inactive)
105 | O=C(O)CCC(=O)Nc1nnc(C(F)(F)F)s1 | > 4 mM (inactive)
106 | COC1C(O)C(O)C(O)[C@@H](O)C1O (stereo partly drawn) | > 4 mM (inactive)
107 | CC(C)=CCc1c2c(c(O)c3c(=O)c(O)c(-c4ccccc4)oc13)C=CC(C)(C)O2 | > 4 mM (inactive)
108 | O=C(Nc1ncccn1)c1cccc(F)c1 | > 4 mM (inactive)
109 | CN(C)S(=O)(=O)Nc1ccc(Br)cc1F | > 4 mM (inactive)
110 | COc1cc(OC)c(OC)cc1C=O | > 4 mM (inactive)
111 | NC(=O)CC1Nc2cccc3cccc(c23)NC1=O (stereo not drawn) | > 4 mM (inactive)
112 | Cc1cccc(-n2c(N)cc(=O)[nH]c2=S)c1C | > 4 mM (inactive)
113 | C[C@@H]1C(=O)OC2[C@H](O)C34[C@@H]5OC(=O)[C@@]3(O[C@@H]3OC(=O)[C@H](O)[C@@]34[C@H](C(C)(C)C)[C@H]5O)[C@]21O (stereo partly drawn) | > 4 mM (inactive)
114 | Nc1cccc2c(=O)[nH][nH]c(=O)c12 | > 4 mM (inactive)
115 | CC(=O)NC(=S)Nc1cccc(C(=O)O)c1C | > 4 mM (inactive)
116 | CC(=O)NC(c1ccccc1)c1cccnc1 (stereo not drawn) | > 4 mM (inactive)
117 | CSc1ccc(C(=S)N2CCN(C)CC2)cc1 | > 4 mM (inactive)
118 | CCCNC(=O)CSc1ncccc1C(=O)O | > 4 mM (inactive)
